Where “and” joins values, the source holds several entries; their conditions need not be identical. Equal values may be shown once. Inconclusive results and toxic doses are left out. How the source made its calls: active means survival T/C of 150% or more; inactive means T/C below 125% in these data.
Test system: CD2F1 mice, L1210 leukemia ip, survival T/C
Assay: NCI In Vivo Anticancer Drug Screen. Data for tumor model L1210 Leukemia (intraperitoneal) in CD2F1 (CDF1) mice
Conditions: endpoint: mean survival time, higher = longer survival
In short: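 Each value reflects a quotient of treated over vehicle control outcomes in mice with a transplanted tumor.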

[1] = dose: 100.0 mg/kg/injection, schedule: Q01DX001 (ip), vehicle: saline with Tween-80
[2] = dose: 200.0 mg/kg/injection, schedule: Q01DX001 (ip), vehicle: saline with Tween-80
[3] = dose: 400.0 mg/kg/injection, schedule: Q01DX001 (ip), vehicle: saline with Tween-80
[4] = dose: 100.0 mg/kg/injection, schedule: Q04DX003 (ip), vehicle: saline
[5] = dose: 100.0 mg/kg/injection, schedule: Q04DX003 (ip), vehicle: saline with Tween-80
[6] = dose: 200.0 mg/kg/injection, schedule: Q04DX003 (ip), vehicle: saline with Tween-80
[7] = dose: 400.0 mg/kg/injection, schedule: Q04DX003 (ip), vehicle: saline with Tween-80
[8] = dose: 6.25 mg/kg/injection, schedule: Q01DX009 (ip), vehicle: saline with Tween-80
[9] = dose: 12.5 mg/kg/injection, schedule: Q01DX009 (ip), vehicle: saline with Tween-80
[10] = dose: 25.0 mg/kg/injection, schedule: Q01DX009 (ip), vehicle: saline with Tween-80
[11] = dose: 50.0 mg/kg/injection, schedule: Q01DX009 (ip), vehicle: saline with Tween-80
[12] = dose: 100.0 mg/kg/injection, schedule: Q01DX009 (ip), vehicle: saline with Tween-80
[13] = dose: 200.0 mg/kg/injection, schedule: Q01DX009 (ip), vehicle: saline with Tween-80
[14] = dose: 100.0 mg/kg/injection, schedule: Q04DX002 (ip), vehicle: saline with Tween-80
[15] = dose: 200.0 mg/kg/injection, schedule: Q04DX002 (ip), vehicle: saline with Tween-80
[16] = dose: 100.0 mg/kg/injection, schedule: Q01DX001 (ip), vehicle: saline
[17] = dose: 200.0 mg/kg/injection, schedule: Q01DX001 (ip), vehicle: saline

Measured: T/C

Cc1cnc(N)nc1-c1ccccc1
inactive: [1] 102 % of control | [2] 94 % of control | [3] 94 % of control

OCCC1CC1=C1CC1 (stereo not drawn)
inactive: dose: 100.0 mg/kg/injection, schedule: Q04DX003 (ip), vehicle: Klucel (hydroxypropylcellulose) (HPC) 101 % of control | dose: 200.0 mg/kg/injection, schedule: Q04DX003 (ip), vehicle: Klucel (hydroxypropylcellulose) (HPC) 101 % of control

C[N+](C)(C)CCS(=O)(=O)[O-]
inactive: [4] 102 % of control | dose: 200.0 mg/kg/injection, schedule: Q04DX003 (ip), vehicle: saline 100 % of control | dose: 400.0 mg/kg/injection, schedule: Q04DX003 (ip), vehicle: saline 100 % of control

CC1(C)C(=O)CCC2(C)C(OC(=O)c3ccc(C(=O)O)cc3)CCCC12 (stereo not drawn)
inactive: [5] 96 % of control | [6] 93 % of control | [7] 93 % of control

CC(C)NC(=S)S
inactive: dose: 25.0 mg/kg/injection, schedule: Q01DX009 (ip), vehicle: saline 100 % of control | dose: 25.0 mg/kg/injection, schedule: Q04DX003 (ip), vehicle: saline 100 % of control | dose: 50.0 mg/kg/injection, schedule: Q01DX009 (ip), vehicle: saline 94 % of control | dose: 50.0 mg/kg/injection, schedule: Q04DX003 (ip), vehicle: saline 105 % of control | dose: 100.0 mg/kg/injection, schedule: Q01DX009 (ip), vehicle: saline 109 % of control | [4] 103 % of control

CC1(CO)C(O)CCC2(C)C1CCC1CC3CC12CCC3(O)CO (stereo not drawn)
inactive: [8] 119 % of control and 102 % of control | [9] 106 % of control and 109 % of control | [10] 110 % of control and 111 % of control | [11] 118 % of control and 111 % of control | [12] 121 % of control and 122 % of control | [13] 114 % of control and 102 % of control

CC(=O)O[C@H]1C(=O)[C@@]2(C)[C@H]([C@H](OC(=O)c3ccccc3)[C@]3(O)C[C@H](OC(=O)[C@H](O)[C@@H](NC(=O)c4ccccc4)c4ccccc4)C(C)=C1C3(C)C)[C@]1(OC(C)=O)CO[C@@H]1C[C@@H]2O
inactive: dose: 1.25 mg/kg/injection, schedule: Q01DX009 (ip), vehicle: Klucel (hydroxypropylcellulose) (HPC) 93 % of control | dose: 2.5 mg/kg/injection, schedule: Q01DX009 (ip), vehicle: Klucel (hydroxypropylcellulose) (HPC) 98 % of control | dose: 5.0 mg/kg/injection, schedule: Q01DX009 (ip), vehicle: Klucel (hydroxypropylcellulose) (HPC) 113 % of control and 102 % of control | dose: 10.0 mg/kg/injection, schedule: Q01DX009 (ip), vehicle: Klucel (hydroxypropylcellulose) (HPC) 115 % of control | dose: 40.0 mg/kg/injection, schedule: Q01DX009 (ip), vehicle: Klucel (hydroxypropylcellulose) (HPC) 107 % of control

O=C(Nc1ccccc1)Nc1ccc2c(c1)oc1ccccc12
inactive: dose: 50.0 mg/kg/injection, schedule: Q01DX001 (ip), vehicle: Klucel (hydroxypropylcellulose) (HPC) 108 % of control | dose: 100.0 mg/kg/injection, schedule: Q01DX001 (ip), vehicle: Klucel (hydroxypropylcellulose) (HPC) 97 % of control | [14] 95 % of control | dose: 200.0 mg/kg/injection, schedule: Q01DX001 (ip), vehicle: Klucel (hydroxypropylcellulose) (HPC) 94 % of control | [15] 91 % of control | dose: 400.0 mg/kg/injection, schedule: Q04DX002 (ip), vehicle: saline with Tween-80 98 % of control

CN/N=C1\CCC2C3CCc4cc(O)ccc4C3CCC12C (stereo not drawn)
inactive: dose: 25.0 mg/kg/injection, schedule: Q01DX009 (ip), vehicle: Klucel (hydroxypropylcellulose) (HPC) 102 % of control | dose: 50.0 mg/kg/injection, schedule: Q01DX009 (ip), vehicle: Klucel (hydroxypropylcellulose) (HPC) 103 % of control

CC1(C)N=C(N)N=C(N)N1c1ccc(/C=C/C(=O)Nc2cccc(S(=O)(=O)F)c2)cc1
inactive: [1] 89 % of control | [2] 95 % of control | [3] 92 % of control

CCCCCCCCSC1=C(Cl)C(=O)C(OC)=C(OC)C1=O
inactive: dose: 1.5 mg/kg/injection, schedule: Q01DX009 (ip), vehicle: saline with Tween-80 95 % of control | dose: 3.0 mg/kg/injection, schedule: Q01DX009 (ip), vehicle: saline with Tween-80 98 % of control | dose: 3.13 mg/kg/injection, schedule: Q01DX009 (ip), vehicle: saline with Tween-80 94 % of control | [8] 89 % of control and 98 % of control | [9] 96 % of control and 104 % of control | [10] 96 % of control and 102 % of control

N#CCCCSc1ccccc1
inactive: [16] 96 % of control | [17] 106 % of control

CCOC(=O)c1c(NC(=O)CBr)sc(C)c1C
inactive: dose: 75.0 mg/kg/injection, schedule: Q01DX001 (ip), vehicle: saline 104 % of control | dose: 150.0 mg/kg/injection, schedule: Q01DX001 (ip), vehicle: saline 98 % of control | dose: 300.0 mg/kg/injection, schedule: Q01DX001 (ip), vehicle: saline 104 % of control

OCC(O)C1OC(SCc2ccccc2)C(O)C(O)C1O (stereo not drawn)
inactive: [5] 91 % of control | [6] 100 % of control | [7] 107 % of control

CCN=C(NCC)SCCSC(=NCC)NCC
inactive: [14] 104 % of control | [15] 102 % of control

c1ccc(CSC(SCc2ccccc2)c2ccccc2)cc1
inactive: dose: 100.0 mg/kg/injection, schedule: Q01DX009 (ip), vehicle: Klucel (hydroxypropylcellulose) (HPC) 86 % of control | [5] 96 % of control | dose: 200.0 mg/kg/injection, schedule: Q01DX009 (ip), vehicle: Klucel (hydroxypropylcellulose) (HPC) 92 % of control | [6] 100 % of control | dose: 400.0 mg/kg/injection, schedule: Q01DX009 (ip), vehicle: Klucel (hydroxypropylcellulose) (HPC) 92 % of control | [7] 97 % of control

COc1ccccc1OCC1CO1 (stereo not drawn)
inactive: [16] 101 % of control | [17] 102 % of control | dose: 400.0 mg/kg/injection, schedule: Q01DX001 (ip), vehicle: saline 102 % of control

NC(=O)c1cn(C2OC(CO)C(O)C2O)nc1N (stereo not drawn)
inactive: dose: 100.0 mg/kg/injection, schedule: Q01DX005 (ip), vehicle: saline 100 % of control | dose: 200.0 mg/kg/injection, schedule: Q01DX005 (ip), vehicle: saline 105 % of control

O=S1(=O)CC(Br)C(Br)C1 (stereo not drawn)
inactive: [11] 88 % of control | [12] 100 % of control | [5] 106 % of control | [13] 110 % of control | [6] 107 % of control | [7] 100 % of control

CCC(C)N(C)/N=N/c1nc[nH]c1C(N)=O (stereo not drawn)
inactive: [13] 104 % of control

— PubChem BioAssay AID256 (DTP/NCI, 2004)
